Structures can show the parent of a compound that is named as a salt.

System in one data set: not given
Experiment: not given
Settings: not given
For `Clc1ccccc1-c1cc2cnc(NC3CCOCC3)nc2n2ccnc12` (as salt: HCl) [Compound 2], the melting point (in general, the temperature, or range, at which the solid turns liquid) lay in the range of 211 to 214 °C.
For `CS(=O)(=O)N1CCC(Nc2ncc3cc(-c4ccccc4Cl)c4nccn4c3n2)CC1` (as salt: HCl) [Compound 3], the melting point was in the range of 188 to 194 °C.
`O=S1(=O)CCC(Nc2ncc3cc(-c4ccccc4Cl)c4nccn4c3n2)CC1` (as salt: HCl) [Compound 5] returned a melting point of 221.8 to 226.8 °C.
Consider `CC(C)(CO)Nc1ncc2cc(-c3ccccc3Cl)c3nccn3c2n1` (as salt: HCl) [Compound 6], for which the melting point was in the range of 190.8 to 194.3 °C.
Same read-out and setting: the same measure for `CC(C)Nc1ncc2cc(-c3ccccc3Cl)c3nccn3c2n1` (as salt: HCl) [Compound 7]: 210 to 212.5 °C; for `Fc1ccc(CNc2ncc3cc(-c4ccccc4Cl)c4nccn4c3n2)cc1` (as salt: HCl) [Compound 8]: 178 to 180 °C; for `CS(=O)(=O)CCNc1ncc2cc(-c3ccccc3Cl)c3nccn3c2n1` (as salt: HCl) [Compound 9]: 172.2 to 176 °C.
In turn, `O[C@H]1CC[C@H](Nc2ncc3cc(-c4ccccc4Cl)c4nccn4c3n2)CC1` [Compound 1] had a melting point of 116 to 119 °C.
The same measure, in the same setting: as for `O[C@H]1CC[C@H](Nc2ncc3c(n2)N2CCN=C2C(c2ccccc2Cl)=C3)CC1` [Compound 13], the figure is 169.3 to 175.8 °C.

The next data set deals with T1, p-38 MAP kinase (Homo sapiens, UniProt Q16539).
T1 construct: made in house; host or cells: E. coli (co-expressed with SEK-1 and MEKK)
T1 sequence (Q16539 whole entry): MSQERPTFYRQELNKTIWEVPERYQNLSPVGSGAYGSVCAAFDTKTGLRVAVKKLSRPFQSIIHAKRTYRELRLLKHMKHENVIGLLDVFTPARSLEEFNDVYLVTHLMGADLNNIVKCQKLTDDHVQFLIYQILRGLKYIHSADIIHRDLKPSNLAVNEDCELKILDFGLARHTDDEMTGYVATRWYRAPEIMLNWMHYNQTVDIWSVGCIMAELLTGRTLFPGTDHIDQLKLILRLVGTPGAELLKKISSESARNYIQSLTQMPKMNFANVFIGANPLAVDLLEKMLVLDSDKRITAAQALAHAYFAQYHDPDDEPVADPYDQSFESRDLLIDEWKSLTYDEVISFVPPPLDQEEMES
The data set can be described thus: Inhibition of p-38 (MAP) kinase, in vitro assay (transfer of γ-phosphate from γ-33P-ATP to Myelin Basic Protein). The settings on record: phosphorylated recombinant p38 MAP kinase; substrate MBP and γ-33P-ATP; 30° C.; read-out: IC50, the concentration causing 50% inhibition of the p-38 enzyme. The format is biochemical. On the procedure:
The p-38 MAP kinase inhibitory activity of compounds of this invention in vitro was determined by measuring the transfer of the γ-phosphate from γ-^33P-ATP by p-38 kinase to Myelin Basic Protein (MBP), using the a minor modification of the method described in Ahn, N. G.; et al. J. of Biol. Chem. Vol. 266(7), 4220-4227, (1991)
The phosphorylated form of the recombinant p38 MAP kinase was expressed with SEK-1 and MEKK in E. Coli (see, Khokhlatchev, A. et al. J. of Biol. Chem. Vol. 272(17), 11057-11062, (1997) and then purified by affinity chromatography using a Nickel column.
The phosphorylated p38 MAP kinase was diluted in kinase buffer (20 mM 3-(N-morpholino)propanesulfonic acid, pH 7.2, 25 mM β-glycerol phosphate, 5 mM ethylene glycol-bis(beta-aminoethyl ether)-N,N,N′,N′-tetraacetic acid, 1 mM sodium vanadate, 1 mM dithiothreitol, 40 mM magnesium chloride). Test compound dissolved in DMSO or only DMSO (control) was added and the samples were incubated for 10 min. at 30° C. The kinase reaction was initiated by the addition of a substrate cocktail containing MBP and γ-^33P-ATP. After incubating for an additional 20 min. at 30° C., the reaction was terminated by adding 0.75% phosphoric acid. The phosphorylated MBP was then separated from the residual γ-^33P-ATP using a phosphocellulose membrane (Millipore, Bedford, Mass.) and quantitated using a scintillation counter (Packard, Meriden, Conn.).
Regarding `O[C@H]1CC[C@H](Nc2ncc3cc(-c4ccccc4Cl)c4nccn4c3n2)CC1` [Compound 1], the IC50 was 10 nM.
Same read-out and setting: the same measure for `CS(=O)(=O)N1CCC(Nc2ncc3cc(-c4ccccc4Cl)c4nccn4c3n2)CC1` [Compound 3]: 2.7 nM.
The same measure, in the same setting: as for `CC(C)(CO)Nc1ncc2cc(-c3ccccc3Cl)c3nccn3c2n1` [Compound 6], the figure is 18.8 nM; as for `CC(C)Nc1ncc2cc(-c3ccccc3Cl)c3nccn3c2n1` [Compound 7], 1.4 nM.
Same read-out and setting: the same measure for `O[C@H]1CC[C@H](Nc2ncc3c(n2)N2CCN=C2N(c2ccccc2Cl)C3)CC1` [Compound 12]: 6620 nM.
As to `O[C@H]1CC[C@H](Nc2ncc3c(n2)N2CCN=C2C(c2ccccc2Cl)=C3)CC1` [Compound 13], the IC50 is 1140 nM.

The values above are taken from patent US7285561B2, “Imidazo-substituted compounds as p38 kinase inhibitors” (Roche Palo Alto LLC, priority 2006, dated 2007).
